Measured values: patent US20240182420A1, “MICROBIOCIDAL ISONICOTINIC AMIDE DERIVATIVES” (SYNGENTA CROP PROTECTION AG, priority 2021, published 2024)

How the values were obtained:
[1] = system: Glomerella lagenarium syn Colletotrichum lagenarium; test: Glomerella lagenarium syn. Colletotrichum lagenarium (anthracnose), liquid culture growth inhibition; type: cell-based; conditions: Colletotrichum orbiculare, PDB nutrient broth, 24° C., 72 hrs, 620 nm, vs untreated control
Procedure: (§1) Conidia of the fungus from cryogenic storage were directly mixed into nutrient broth (PDB potato dextrose broth). A DMSO solution of the test compounds was placed into a microtiter plate (96-well format) and the nutrient broth containing the fungal spores was added to it. The test plates were incubated at 24° C. and the inhibition of growth was determined photometrically after 72 hrs at 620 nm.

[2] = system: Botryotinia fuckeliana syn. Botrytis cinerea; test: Botryotinia fuckeliana syn. Botrytis cinerea (gray mould), liquid culture growth inhibition; type: cell-based; conditions: PDB nutrient broth, 24° C., 72 hrs, photometric, vs untreated control
Procedure: as §1, with “hrs.” for “hrs at 620 nm.”

SMILES	inhibition of growth at 20 ppm [1] [%]	inhibition of growth at 20 ppm [2] [%]
O=C(NCCc1ccccc1)c1cc(Cl)ncc1Oc1cccc(C2CC2)c1 [Compound 1.29, 2-chloro-5-(3-cyclopropyl-phenoxy)-N-(2-phenylethyl) pyridine-4-carboxamide]	≥ 80	
O=C(NCCc1ccc(Cl)cc1Cl)c1cc(Cl)ncc1Oc1ccccc1 [Compound 1.45, 2-chloro-N-[2-(2,4-dichlorophenyl)ethyl]-5-phenoxy-pyridine-4-carboxamide]		≥ 80
O=C(NCCc1ccc(Cl)cc1Cl)c1cc(C(F)(F)F)ncc1Oc1cccc(C2CC2)c1 [Compound 1.19, 5-(3-cyclopropyl-phenoxy)-N-[2-(2,4-dichlorophenyl)ethyl]-2-(trifluoromethyl) pyridine-4-carboxamide]	≥ 80	
O=C(N[C@@H]1C[C@@H]1c1ccc(F)cc1)c1cc(Cl)ncc1Oc1cccc(C2CC2)c1 [Compound 1.75, 2-chloro-5-(3-cyclopropyl-phenoxy)-N-[(1R,2R)-2-(4-fluorophenyl)cyclopropyl]pyridine-4-carboxamide]	≥ 80	≥ 80
COc1ccc(CCNC(=O)c2cc(Cl)ncc2Oc2cccc(C3CC3)c2)cc1OC [Compound 1.26, 2-chloro-5-(3-cyclopropyl-phenoxy)-N-[2-(3,4-dimethoxyphenyl)ethyl]pyridine-4-carboxamide]	≥ 80	
CC(C)=Cc1ncc(Oc2cccc(C3CC3)c2)c(C(=O)NCC(F)c2ccc(Cl)cc2Cl)c1O (stereo not drawn) [Compound 1.89, 5-(3-cyclopropyl-phenoxy)-N-[2-(2,4-dichlorophenyl)-2-fluoro-ethyl]-3-hydroxy-2-(2-methylprop-1-enyl)pyridine-4-carboxamide]	≥ 80	≥ 80
Cc1ccc(CCNC(=O)c2cc(Cl)ncc2Oc2cccc(C)c2)cc1 [Compound 1.57, 2-chloro-5-(3-methylphenoxy)-N-[2-(p-tolyl)ethyl]pyridine-4-carboxamide]	≥ 80	≥ 80
O=C(NCC(F)c1ccc(Cl)cc1Cl)c1cc(Cl)ncc1Oc1ccccc1 (stereo not drawn) [Compound 1.67, 2-chloro-N-[2-(2,4-dichlorophenyl)-2-fluoro-ethyl]-5-phenoxy-pyridine-4-carboxamide]		≥ 80
N#Cc1ccccc1CCNC(=O)c1cc(Cl)ncc1Oc1cccc(C2CC2)c1 [Compound 1.23, 2-chloro-N-[2-(2-cyanophenyl)ethyl]-5-(3-cyclopropyl-phenoxy)pyridine-4-carboxamide]	≥ 80	
CCc1cccc(Oc2cnc(Cl)cc2C(=O)NCC(F)c2ccc(Cl)cc2Cl)c1 (stereo not drawn) [Compound 1.66, 2-chloro-N-[2-(2,4-dichlorophenyl)-2-fluoro-ethyl]-5-(3-ethylphenoxy) pyridine-4-carboxamide]	≥ 80	≥ 80
O=C(NCCc1ccc(Cl)cc1Cl)c1cc(Cl)ncc1Oc1cccc(Cl)c1 [Compound 1.68, 2-chloro-5-(3-chlorophenoxy)-N-[2-(2,4-dichlorophenyl)ethyl]pyridine-4-carboxamide]	≥ 80	≥ 80
CCOc1cccc(Oc2cnc(Cl)cc2C(=O)NCC(F)c2ccc(Cl)cc2Cl)c1 (stereo not drawn) [Compound 1.65, 2-chloro-N-[2-(2,4-dichlorophenyl)-2-fluoro-ethyl]-5-(3-ethoxyphenoxy) pyridine-4-carboxamide]	≥ 80	
O=C(NCCc1ccc(F)cc1)c1cc(Cl)ncc1Oc1cccc(C2CC2)c1 [Compound 1.31, 2-chloro-5-(3-cyclopropyl-phenoxy)-N-[2-(4-fluorophenyl)ethyl]pyridine-4-carboxamide]	≥ 80	
Cc1cc(C(=O)NCC(F)c2ccc(Cl)cc2Cl)c(Oc2cccc(C3CC3)c2)c(Cl)n1 (stereo not drawn) [Compound 1.17, 2-chloro-3-(3-cyclopropyl-phenoxy)-N-[2-(2,4-dichlorophenyl)-2-fluoro-ethyl]-6-methyl-pyridine-carboxamide]	≥ 80	≥ 80
Cc1cncc(Oc2cccc(C3CC3)c2)c1C(=O)NC[C@@H](F)c1ccc(Cl)cc1Cl [Compound 1.93, 3-(3-cyclopropyl-phenoxy)-N-[(2S)-2-(2,4-dichlorophenyl)-2-fluoro-ethyl]-5-methyl-pyridine-4-carboxamide]	≥ 80	≥ 80
Cc1ccc(CCNC(=O)c2cc(Cl)ncc2Oc2cccc(C3CC3)c2)c(C)c1 [Compound 1.77, 2-chloro-5-(3-cyclopropyl-phenoxy)-N-[2-(2,4-dimethylphenyl)ethyl]pyridine-4-carboxamide]	≥ 80	≥ 80
O=C(NCCc1ccccc1Cl)c1cc(Cl)ncc1Oc1cccc(C2CC2)c1 [Compound 1.33, 2-chloro-N-[2-(2-chlorophenyl)ethyl]-5-(3-cyclopropyl-phenoxy)pyridine-4-carboxamide]	≥ 80	
O=C(NCCc1ccc(Cl)cc1)c1cc(Cl)ncc1Oc1cccc(C2CC2)c1 [Compound 1.24, 2-chloro-N-[2-(4-chlorophenyl)ethyl]-5-(3-cyclopropyl-phenoxy)pyridine-4-carboxamide]	≥ 80	≥ 80
Cc1cccc(Oc2cnc(Cl)cc2C(=O)NCCc2ccc(Cl)cc2)c1 [Compound 1.47, 2-chloro-N-[2-(4-chlorophenyl)ethyl]-5-(3-methylphenoxy) pyridine-4-carboxamide]	≥ 80	≥ 80
N#Cc1cncc(Oc2cccc(C3CC3)c2)c1C(=O)NCC(F)c1ccc(Cl)cc1Cl (stereo not drawn) [Compound 1.97, 3-cyano-5-(3-cyclopropyl-phenoxy)-N-[2-(2,4-dichlorophenyl)-2-fluoro-ethyl]pyridine-4-carboxamide]	≥ 80	
Cc1cccc(Oc2cnc(Cl)cc2C(=O)NCC(F)c2ccc(F)cc2F)c1 (stereo not drawn) [Compound 1.59, 2-chloro-N-[2-(2,4-difluorophenyl)-2-fluoro-ethyl]-5-(3-methylphenoxy) pyridine-4-carboxamide]		≥ 80
O=C(NCC(F)c1ccc(Cl)cc1Cl)c1cc(Cl)ncc1Oc1ccc(F)c(F)c1 (stereo not drawn) [Compound 1.62, 2-chloro-N-[2-(2,4-dichlorophenyl)-2-fluoro-ethyl]-5-(3,4-difluorophenoxy) pyridine-4-carboxamide]		≥ 80
COc1ccc(CCNC(=O)c2cc(Cl)ncc2Oc2cccc(C)c2)cc1 [Compound 1.55, 2-chloro-N-[2-(4-methoxyphenyl)ethyl]-5-(3-methylphenoxy) pyridine-4-carboxamide]		≥ 80
Cc1nccc(C(=O)NCC(F)c2ccc(Cl)cc2Cl)c1Oc1cccc(C2CC2)c1 (stereo not drawn) [Compound 1.12, 3-(3-cyclopropyl-phenoxy)-N-[2-(2,4-dichlorophenyl)-2-fluoro-ethyl]-2-methyl-pyridine-4-carboxamide]	≥ 80	
N#Cc1ccc(CCNC(=O)c2cc(Cl)ncc2Oc2cccc(C3CC3)c2)cc1 [Compound 1.34, 2-chloro-N-[2-(4-cyanophenyl)ethyl]-5-(3-cyclopropyl-phenoxy) pyridine-4-carboxamide]	≥ 80	
Cc1cccc(Oc2cnc(Cl)cc2C(=O)NCCc2ccccc2Cl)c1 [Compound 1.54, 2-chloro-N-[2-(2-chlorophenyl)ethyl]-5-(3-methylphenoxy) pyridine-4-carboxamide]		≥ 80
